Data published in ChEMBL document CHEMBL5649169 (ChemMedChem, 2018).

What was measured:
[1] = molecular target: Small ribosomal subunit protein RACK1 (Homo sapiens) (UniProt P63244); further: assay method not described here
[2] = molecular target: Cyclin-dependent kinase 2 (Homo sapiens) (UniProt P24941); further: assay method not described here
[3] = molecular target: Paired amphipathic helix protein Sin3a (Homo sapiens) (UniProt Q96ST3); further: assay method not described here
[4] = molecular target: Conserved oligomeric Golgi complex subunit 2 (Homo sapiens) (UniProt Q14746); further: assay method not described here
[5] = molecular target: Choline/ethanolaminephosphotransferase 1 (Homo sapiens) (UniProt Q9Y6K0); further: assay method not described here
[6] = molecular target: Lysosomal alpha-mannosidase (Homo sapiens) (UniProt O00754); further: assay method not described here
[7] = molecular target: Elongation factor G, mitochondrial (Homo sapiens) (UniProt Q96RP9); further: assay method not described here
[8] = molecular target: V-type proton ATPase 16 kDa proteolipid subunit c (Homo sapiens) (UniProt P27449); further: assay method not described here
[9] = molecular target: Dolichyl-diphosphooligosaccharide--protein glycosyltransferase subunit STT3B (Homo sapiens) (UniProt Q8TCJ2); further: assay method not described here
[10] = molecular target: Serine/threonine-protein kinase 26 (Homo sapiens) (UniProt Q9P289); further: assay method not described here
[11] = molecular target: Microfibrillar-associated protein 1 (Homo sapiens) (UniProt P55081); further: assay method not described here
[12] = molecular target: Very long chain fatty acid elongase 5 (Homo sapiens) (UniProt Q9NYP7); further: assay method not described here
[13] = molecular target: Ubiquitin carboxyl-terminal hydrolase 9X (Homo sapiens) (UniProt Q93008); further: assay method not described here
[14] = molecular target: Mismatch repair endonuclease PMS2 (Homo sapiens) (UniProt P54278); further: assay method not described here
[15] = molecular target: Electrogenic aspartate/glutamate antiporter SLC25A13, mitochondrial (Homo sapiens) (UniProt Q9UJS0); further: assay method not described here
[16] = molecular target: Malate dehydrogenase, cytoplasmic (Homo sapiens) (UniProt P40925); further: assay method not described here
[17] = molecular target: Programmed cell death protein 2-like (Homo sapiens) (UniProt Q9BRP1); further: assay method not described here
[18] = molecular target: Macrophage migration inhibitory factor (Homo sapiens) (UniProt P14174); further: assay method not described here
[19] = molecular target: Pyruvate dehydrogenase protein X component, mitochondrial (Homo sapiens) (UniProt O00330); further: assay method not described here
[20] = molecular target: Lipid scramblase CLPTM1L (Homo sapiens) (UniProt Q96KA5); further: assay method not described here
[21] = molecular target: Y-box-binding protein 3 (Homo sapiens) (UniProt P16989); further: assay method not described here
[22] = molecular target: ATP-dependent RNA helicase A (Homo sapiens) (UniProt Q08211); further: assay method not described here
[23] = molecular target: Signal recognition particle receptor subunit alpha (Homo sapiens) (UniProt P08240); further: assay method not described here
[24] = molecular target: ATP-binding cassette sub-family F member 2 (Homo sapiens) (UniProt Q9UG63); further: assay method not described here
[25] = molecular target: RNA-binding protein 14 (Homo sapiens) (UniProt Q96PK6); further: assay method not described here
[26] = molecular target: OCIA domain-containing protein 1 (Homo sapiens) (UniProt Q9NX40); further: assay method not described here
[27] = molecular target: Ubiquitin-conjugating enzyme E2 G2 (Homo sapiens) (UniProt P60604); further: assay method not described here
[28] = molecular target: Serine hydrolase BPHL (Homo sapiens) (UniProt Q86WA6); further: assay method not described here
[29] = molecular target: Periphilin-1 (Homo sapiens) (UniProt Q8NEY8); further: assay method not described here
[30] = molecular target: Nuclear cap-binding protein subunit 2 (Homo sapiens) (UniProt P52298); further: assay method not described here
[31] = molecular target: Ras suppressor protein 1 (Homo sapiens) (UniProt Q15404); further: assay method not described here
[32] = molecular target: Tubulin beta-4A chain (Homo sapiens) (UniProt P04350); further: assay method not described here
[33] = molecular target: Putative protein-lysine deacylase ABHD14B (Homo sapiens) (UniProt Q96IU4); further: assay method not described here
[34] = molecular target: AP-3 complex subunit delta-1 (Homo sapiens) (UniProt O14617); further: assay method not described here
[35] = molecular target: Small ribosomal subunit protein uS11 (Homo sapiens) (UniProt P62263); further: assay method not described here
[36] = molecular target: Ribosomal protein S6 kinase beta-1 (Homo sapiens) (UniProt P23443); further: assay method not described here
[37] = molecular target: Protein CIP2A (Homo sapiens) (UniProt Q8TCG1); further: assay method not described here
Ephrin type-A receptor 2 = Ephrin type-A receptor 2 (Homo sapiens, UniProt P29317); assay: Inhibition of Nano Luc-fused full length C-terminal EPHA2 (unknown origin) expressed in HEK293T cells using NanoGlo as substrate incubated for 2 hrs in presence of tracer by NanoBRET assay; format: cell-based
Erlin-2 (Homo sapiens) = Erlin-2 (Homo sapiens) (UniProt O94905); further: assay method not described here
[38] = molecular target: Reticulon-3 (Homo sapiens) (UniProt O95197); further: assay method not described here
[39] = molecular target: Calcyclin-binding protein (Homo sapiens) (UniProt Q9HB71); further: assay method not described here
[40] = molecular target: Citrate synthase, mitochondrial (Homo sapiens) (UniProt O75390); further: assay method not described here
[41] = molecular target: Vacuole membrane protein 1 (Homo sapiens) (UniProt Q96GC9); further: assay method not described here
[42] = molecular target: Bone marrow stromal antigen 2 (Homo sapiens) (UniProt Q10589); further: assay method not described here
[43] = molecular target: Small ribosomal subunit protein eS28 (Homo sapiens) (UniProt P62857); further: assay method not described here
Wherever ED50 is given: assay method not described here.

Sequence of Ribosomal protein S6 kinase beta-1 (Homo sapiens) (P23443 whole entry, looked up): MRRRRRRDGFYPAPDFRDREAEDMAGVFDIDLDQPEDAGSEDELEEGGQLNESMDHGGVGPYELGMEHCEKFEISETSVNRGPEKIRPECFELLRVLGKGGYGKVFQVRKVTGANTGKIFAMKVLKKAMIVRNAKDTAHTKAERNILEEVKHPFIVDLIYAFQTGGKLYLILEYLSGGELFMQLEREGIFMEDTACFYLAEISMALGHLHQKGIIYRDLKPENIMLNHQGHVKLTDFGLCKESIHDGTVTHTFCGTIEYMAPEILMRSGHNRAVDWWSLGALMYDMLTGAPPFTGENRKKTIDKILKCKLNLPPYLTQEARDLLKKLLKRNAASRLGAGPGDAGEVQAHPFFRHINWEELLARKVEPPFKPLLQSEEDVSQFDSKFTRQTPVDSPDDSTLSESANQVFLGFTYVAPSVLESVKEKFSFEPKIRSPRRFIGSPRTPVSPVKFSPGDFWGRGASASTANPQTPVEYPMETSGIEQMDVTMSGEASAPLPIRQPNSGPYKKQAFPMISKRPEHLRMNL
Sequence of Malate dehydrogenase, cytoplasmic (Homo sapiens) (P40925 whole entry): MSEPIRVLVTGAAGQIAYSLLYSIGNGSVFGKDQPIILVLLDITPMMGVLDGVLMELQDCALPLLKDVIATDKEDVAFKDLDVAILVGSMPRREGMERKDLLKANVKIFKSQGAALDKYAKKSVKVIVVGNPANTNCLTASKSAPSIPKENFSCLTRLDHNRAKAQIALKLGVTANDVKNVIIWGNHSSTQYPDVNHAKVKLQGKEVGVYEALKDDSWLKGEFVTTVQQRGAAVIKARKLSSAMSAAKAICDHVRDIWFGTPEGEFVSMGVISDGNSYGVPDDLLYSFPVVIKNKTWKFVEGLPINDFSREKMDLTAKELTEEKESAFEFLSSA
Sequence of ATP-dependent RNA helicase A (Homo sapiens) (Q08211 whole entry): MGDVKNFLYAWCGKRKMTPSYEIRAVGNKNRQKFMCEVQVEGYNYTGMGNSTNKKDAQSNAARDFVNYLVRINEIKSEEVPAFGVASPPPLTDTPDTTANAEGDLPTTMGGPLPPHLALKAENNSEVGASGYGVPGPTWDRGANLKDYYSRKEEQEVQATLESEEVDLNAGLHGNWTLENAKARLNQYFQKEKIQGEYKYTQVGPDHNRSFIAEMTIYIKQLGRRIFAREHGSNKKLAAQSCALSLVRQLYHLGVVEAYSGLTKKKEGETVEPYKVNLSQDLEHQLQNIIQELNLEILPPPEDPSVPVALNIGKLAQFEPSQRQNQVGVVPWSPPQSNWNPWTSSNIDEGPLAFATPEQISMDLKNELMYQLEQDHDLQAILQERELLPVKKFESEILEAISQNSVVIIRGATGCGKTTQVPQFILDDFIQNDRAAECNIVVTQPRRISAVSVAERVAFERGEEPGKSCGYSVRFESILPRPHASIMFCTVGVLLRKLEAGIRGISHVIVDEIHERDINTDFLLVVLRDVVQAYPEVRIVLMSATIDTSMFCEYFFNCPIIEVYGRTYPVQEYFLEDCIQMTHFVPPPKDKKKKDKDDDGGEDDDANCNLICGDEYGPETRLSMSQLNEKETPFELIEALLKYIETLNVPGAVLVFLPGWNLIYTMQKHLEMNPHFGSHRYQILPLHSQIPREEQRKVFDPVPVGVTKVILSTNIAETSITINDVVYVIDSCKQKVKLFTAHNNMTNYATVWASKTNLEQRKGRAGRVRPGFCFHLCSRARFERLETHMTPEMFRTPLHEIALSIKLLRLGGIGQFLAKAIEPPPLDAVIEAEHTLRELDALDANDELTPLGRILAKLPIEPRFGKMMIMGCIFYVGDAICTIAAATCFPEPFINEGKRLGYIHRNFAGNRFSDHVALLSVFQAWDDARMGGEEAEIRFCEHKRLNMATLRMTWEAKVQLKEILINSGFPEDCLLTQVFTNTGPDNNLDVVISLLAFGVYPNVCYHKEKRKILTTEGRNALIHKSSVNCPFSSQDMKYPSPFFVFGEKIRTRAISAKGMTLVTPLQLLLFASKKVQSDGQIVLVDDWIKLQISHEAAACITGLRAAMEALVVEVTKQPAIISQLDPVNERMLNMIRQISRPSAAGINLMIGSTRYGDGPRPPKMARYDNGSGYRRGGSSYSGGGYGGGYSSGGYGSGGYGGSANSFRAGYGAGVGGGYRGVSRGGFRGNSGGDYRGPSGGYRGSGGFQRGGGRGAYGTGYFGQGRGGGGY
Sequence of Pyruvate dehydrogenase protein X component, mitochondrial (Homo sapiens) (O00330 whole entry): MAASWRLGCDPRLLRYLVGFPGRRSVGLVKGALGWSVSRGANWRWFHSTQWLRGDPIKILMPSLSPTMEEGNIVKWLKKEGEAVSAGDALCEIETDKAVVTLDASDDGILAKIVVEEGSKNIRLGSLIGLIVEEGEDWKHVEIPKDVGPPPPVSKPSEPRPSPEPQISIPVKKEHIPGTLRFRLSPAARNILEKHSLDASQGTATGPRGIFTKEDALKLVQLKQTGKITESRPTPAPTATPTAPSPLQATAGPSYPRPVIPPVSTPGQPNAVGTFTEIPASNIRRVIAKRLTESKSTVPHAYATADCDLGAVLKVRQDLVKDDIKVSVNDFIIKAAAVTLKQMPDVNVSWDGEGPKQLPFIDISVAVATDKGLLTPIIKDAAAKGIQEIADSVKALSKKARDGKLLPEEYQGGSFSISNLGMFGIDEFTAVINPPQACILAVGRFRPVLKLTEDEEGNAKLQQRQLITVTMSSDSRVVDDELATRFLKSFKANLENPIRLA
Sequence of Vacuole membrane protein 1 (Homo sapiens) (Q96GC9 whole entry): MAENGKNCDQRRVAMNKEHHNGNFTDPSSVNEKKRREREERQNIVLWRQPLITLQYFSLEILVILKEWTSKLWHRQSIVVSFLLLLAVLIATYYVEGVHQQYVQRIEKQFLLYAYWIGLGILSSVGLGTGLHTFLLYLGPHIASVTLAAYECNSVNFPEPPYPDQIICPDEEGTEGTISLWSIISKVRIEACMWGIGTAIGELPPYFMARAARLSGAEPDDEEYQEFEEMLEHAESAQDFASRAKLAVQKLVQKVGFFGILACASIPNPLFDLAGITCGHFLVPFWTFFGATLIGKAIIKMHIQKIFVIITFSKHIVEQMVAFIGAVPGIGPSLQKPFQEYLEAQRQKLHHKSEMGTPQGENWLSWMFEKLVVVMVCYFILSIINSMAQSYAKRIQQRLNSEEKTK
Sequence of Ephrin type-A receptor 2 (P29317 whole entry, the tested form may be a part): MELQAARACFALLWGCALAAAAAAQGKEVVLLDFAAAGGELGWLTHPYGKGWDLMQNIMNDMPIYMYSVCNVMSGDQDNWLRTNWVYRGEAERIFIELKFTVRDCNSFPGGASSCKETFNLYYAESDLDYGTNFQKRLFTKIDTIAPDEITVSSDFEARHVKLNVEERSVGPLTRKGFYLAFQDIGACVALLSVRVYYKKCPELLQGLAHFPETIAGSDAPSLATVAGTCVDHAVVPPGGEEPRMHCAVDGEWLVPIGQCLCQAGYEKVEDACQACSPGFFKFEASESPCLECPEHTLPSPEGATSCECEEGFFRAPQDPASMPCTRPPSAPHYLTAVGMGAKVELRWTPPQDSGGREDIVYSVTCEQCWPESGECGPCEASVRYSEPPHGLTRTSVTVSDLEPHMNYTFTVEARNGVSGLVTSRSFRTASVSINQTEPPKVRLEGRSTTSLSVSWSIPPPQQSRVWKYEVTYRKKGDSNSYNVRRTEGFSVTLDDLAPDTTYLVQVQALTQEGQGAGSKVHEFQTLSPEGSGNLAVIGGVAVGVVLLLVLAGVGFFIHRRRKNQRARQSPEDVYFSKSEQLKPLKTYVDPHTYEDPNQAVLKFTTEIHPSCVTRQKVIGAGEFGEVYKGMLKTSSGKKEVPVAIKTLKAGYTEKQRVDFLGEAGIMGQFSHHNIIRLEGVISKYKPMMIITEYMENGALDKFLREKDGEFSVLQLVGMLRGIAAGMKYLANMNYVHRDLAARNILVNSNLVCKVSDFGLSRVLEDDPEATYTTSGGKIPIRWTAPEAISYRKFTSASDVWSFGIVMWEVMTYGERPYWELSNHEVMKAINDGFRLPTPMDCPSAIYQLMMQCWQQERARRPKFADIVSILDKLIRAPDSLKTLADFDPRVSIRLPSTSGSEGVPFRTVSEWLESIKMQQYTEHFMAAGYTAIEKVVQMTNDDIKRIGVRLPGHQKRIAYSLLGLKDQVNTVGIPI
Sequence of Citrate synthase, mitochondrial (Homo sapiens) (O75390 whole entry): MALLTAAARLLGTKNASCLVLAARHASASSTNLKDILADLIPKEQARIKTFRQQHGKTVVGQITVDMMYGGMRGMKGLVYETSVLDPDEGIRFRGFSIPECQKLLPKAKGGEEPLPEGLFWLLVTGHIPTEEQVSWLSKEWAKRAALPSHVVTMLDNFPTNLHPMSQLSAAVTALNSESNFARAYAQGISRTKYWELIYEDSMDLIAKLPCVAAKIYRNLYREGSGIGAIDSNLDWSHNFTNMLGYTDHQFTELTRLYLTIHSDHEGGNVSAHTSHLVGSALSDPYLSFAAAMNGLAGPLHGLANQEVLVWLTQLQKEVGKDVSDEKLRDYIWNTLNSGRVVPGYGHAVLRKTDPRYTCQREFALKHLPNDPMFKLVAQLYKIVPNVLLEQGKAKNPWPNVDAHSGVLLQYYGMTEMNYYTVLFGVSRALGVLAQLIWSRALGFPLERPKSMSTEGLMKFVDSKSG
Sequence of Putative protein-lysine deacylase ABHD14B (Homo sapiens) (Q96IU4 whole entry): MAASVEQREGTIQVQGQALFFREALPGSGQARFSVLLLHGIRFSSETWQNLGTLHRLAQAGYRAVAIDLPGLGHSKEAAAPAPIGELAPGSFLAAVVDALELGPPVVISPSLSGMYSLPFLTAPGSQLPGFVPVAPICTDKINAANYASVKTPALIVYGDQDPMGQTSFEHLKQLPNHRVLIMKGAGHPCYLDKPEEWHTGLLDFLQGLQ
Sequence of Ubiquitin-conjugating enzyme E2 G2 (Homo sapiens) (P60604 whole entry): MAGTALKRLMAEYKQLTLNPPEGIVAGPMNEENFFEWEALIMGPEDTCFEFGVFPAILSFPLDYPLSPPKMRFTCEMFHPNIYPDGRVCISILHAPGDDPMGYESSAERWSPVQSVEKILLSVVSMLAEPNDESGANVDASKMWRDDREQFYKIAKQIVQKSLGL
Sequence of Macrophage migration inhibitory factor (Homo sapiens) (P14174 whole entry): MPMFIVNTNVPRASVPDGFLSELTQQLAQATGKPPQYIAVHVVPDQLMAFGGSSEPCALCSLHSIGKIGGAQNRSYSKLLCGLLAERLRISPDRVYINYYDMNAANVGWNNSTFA

Question: What does the source list for Cc1ccc(C(=O)Nc2cccc(C(F)(F)F)c2)cc1Nc1nc(-c2cccnc2)nc2c1cnn2C?
Answer: ED50 [1]: 2.87 µM; ED50 [2]: 0.0475 µM; ED50 [3]: 47.7 µM; ED50 [4]: 3.45 µM; ED50 [5]: 0.00397 µM; ED50 [6]: 83 µM; ED50 [7]: 0.136 µM; ED50 [8]: 2.7 µM; ED50 [9]: 0.626 µM; ED50 [10]: 0.27 µM; ED50 [11]: 55.2 µM; ED50 [12]: 2.87 µM; ED50 [13]: 0.0603 µM; ED50 [14]: 89.9 µM; ED50 [15]: 1.18 µM; ED50 [16]: 91.4 µM; ED50 [17]: 4.49 µM; ED50 [18]: 0.00224 µM; ED50 [19]: 0.0482 µM; ED50 [20]: 0.00816 µM; ED50 [21]: 15.4 µM; ED50 [22]: 0.112 µM; ED50 [23]: 39.4 µM; ED50 [24]: 5.47 µM; ED50 [25]: 12.4 µM; ED50 [26]: 0.00604 µM; ED50 [27]: 0.00416 µM; ED50 [28]: 13.2 µM; ED50 [29]: 0.336 µM; ED50 [30]: 0.00229 µM; ED50 [31]: 93.4 µM; ED50 [32]: 0.00634 µM; ED50 [33]: 5470 µM; ED50 (Homo sapiens): 5.36 µM; ED50 [34]: 0.00584 µM; ED50 [35]: 5.3 µM; ED50 [36]: 17.6 µM; ED50 [37]: 12.6 µM

Question: What does the source list for Cc1ccc(C(=O)Nc2cccc(C(F)(F)F)c2)cc1Nc1nc(-c2cccnc2)nc2nn(C)cc12?
Answer: IC50 (Ephrin type-A receptor 2): 0.163 µM; ED50 (Erlin-2 (Homo sapiens)): 3.06 µM; ED50 [38]: 0.0206 µM; ED50 [39]: 0.506 µM; ED50 [40]: 62.4 µM; ED50 [41]: 1.93 µM; ED50 [42]: 1250 µM; ED50 [43]: 0.0595 µM
